Data set [1] deals with cold hypersensitivity after CFA or peripheral nerve injury models. The settings on record: ref Knowlton et al. [2011]; cited from earlier work.
A further data set relates to rats. The data set is described as follows: Open field activity. It is filed as in vivo, rat. The settings on record: 5.6 mg/kg i.p., 30 min before; p < 0.05 vs vehicle (14,484 ± 1686 cm). As for the experimental part:
Rats were habituated in a reversed light cycle room in home cages for at least 1 week and acclimated to the testing room for 1 h prior to dosing. TRPM8 antagonist (10, 30, or 100 mg/kg) or vehicle (5 % Tween 80 in OraPlus®) was injected 2 h before placing an animal in the open-field apparatus. Open-field activity was measured using a system that counts interruptions of a set of photobeams for the course of 60 min (Kinder Scientific, Poway, CA). To begin a session, animals were removed from the home cage and placed individually into an independent Plexiglas box (41 cm L × 41 cm W × 38 cm H) surrounded by a frame consisting of 32 photocells (16Y and 16X) that track the movement of the animal. Photobeam breaks were used as an indication of activity and were measured as the following parameters per minute: basic movements (beam breaks), distance traveled (cm), time spent (s), and number of repetitive beam breaks (i.e., stereotypic movement). Chlordiazepoxide, which consistently elicits a decrease in open field activity, was used as a positive control. Chlordiazepoxide was formulated in saline at 5.6 mg/kg i.p. and dosed 30 min before the start of the open field assay.

In another data set the test system is SNL rats. The data set is described as follows: SNL-induced tactile allodynia (von Frey, up-down method). It is filed as in vivo, rat. The settings on record: 200 mg/kg p.o.; p < 0.05 vs vehicle (4.4 ± 1.2 g). As for the experimental part:
SNL surgery was performed using aseptic surgical techniques and a stereomicroscope (Kim and Chung [1992]). Spinal nerve injury was caused by ligating the left L5 and L6 spinal nerves, with special care to avoid damage to the L4 spinal nerve or surrounding area. More specifically, under gaseous anesthesia with a mixture of O2 and isoflurane (3 % for induction and 2 % for maintenance), skin was excised and the longissimus lumborum muscle, part of articular processes (L4-S1), and the fascia above L6 spinal nerve were carefully removed. […]
Behavioral testing Two weeks post surgery, mechanical sensitivity was measured by determining the median 50 % foot withdrawal threshold for von Frey filaments using the up-down method (Chaplan et al. [1994]). […] To avoid possible reflex responses, only abrupt withdrawal of the foot accompanied by pain indicative behaviors (namely paw flinching, shaking, or licking for more than 2 s) was recorded as a response. […]
In vivo IC50 and IC90 estimates using WDS model data were determined by fitting a sigmoidal dose-response curve to individual animal number of WDS versus resulting plasma concentration. Behavioral and electrophysiological data are expressed as mean ± standard error of the mean (S.E.M.). Results were analyzed using one-way analysis of variance (ANOVA) with Dunnett’s multiple-comparisons post-hoc test for significance relative to vehicle. […]

For data set [2], the system named is TRPM8-mediated icilin-induced wet-dog shakes in rats. Description: Icilin-induced wet-dog shake (WDS) model. It is filed as in vivo, rat. On the procedure:
The TRPM8 antagonist (1, 3, or 10 mg/kg) or vehicle control (5 % Tween 80 in OraPlus®) was administered p.o. 90 min prior to administration of icilin (0.5 mg/kg, 1 ml/kg, i.p., 100 % PEG 400). […] Rats were viewed through transparent Plexiglas® observation cylinders that were placed on a custom, opaque, plastic apparatus such that one rat could not view another rat.
In vivo IC50 and IC90 estimates using WDS model data were determined by fitting a sigmoidal dose-response curve to individual animal number of WDS versus resulting plasma concentration. Behavioral and electrophysiological data are expressed as mean ± standard error of the mean (S.E.M.). Results were analyzed using one-way analysis of variance (ANOVA) with Dunnett’s multiple-comparisons post-hoc test for significance relative to vehicle. […] Actual gram values are plotted on a logarithmic scale Y-axis of the figures for convenience. Statistical calculations and graphs were made using GraphPad Prism 5.01 (GraphPad Software Inc, San Diego, CA). Percent responders to menthol stimulation in the ex vivo skin-nerve preparation were compared under vehicle and antagonist conditions through the use of Fisher’s exact test. Responses of C fibers to increasing mechanical forces under vehicle or antagonist conditions were compared using a two-way ANOVA with a Bonferonni post-hoc analysis.

Regarding `COc1cc(CN(CCN)C(=O)OC(C)c2ccccc2)ccc1OCc1ccccc1` (centres unmarked) [PBMC], the “effect on cold hypersensitivity after CFA or peripheral nerve injury” value in data set [1] was “attenuated cold hypersensitivity”. On to `CNC1=Nc2ccc(Cl)cc2C(c2ccccc2)=[N+]([O-])C1` [chlordiazepoxide, Chlordiazepoxide, reference compound], for which, in the data set on rats, the “total distance traveled, open field (positive control)” value turned out to be 9423 ± 745 cm. With `NCC1(CC(=O)O)CCCCC1` [gabapentin, reference compound], in the data set with SNL rats, the “tactile threshold (von Frey), SNL model (positive control)” value is 12.4 ± 1.2 g. For the compound `O=C1NC(c2cccc([N+](=O)[O-])c2)=CCN1c1ccccc1O` [icilin, reference compound], the “ED80 for induction of wet-dog shakes” value in data set [2] (icilin i.p. 0.3, 0.5, 0.75, 1 mg/kg) is “less than 0.5 mg/kg”. Besides, in data set [2] (icilin i.p. 0.3–1.0 mg/kg dose-response, interval 0.28–0.75, data not shown), the “ED90 for induction of wet-dog shakes” value came out at 0.46 mg/kg.

These data come from paper PMC4359714 (Naunyn-Schmiedeberg's Archives of Pharmacology, 2015).
